How the values were obtained:
[1] = molecular target: T1, Prostaglandin E2 receptor EP4 subtype (Homo sapiens, UniProt P35408); test: (§1) Radioligand Binding: HEK-293 cells stably expressing the human or feline FP receptor, or EP1, EP2, or EP4 receptors were washed with TME buffer, scraped from the bottom of the flasks, and homogenized for 30 sec using a Brinkman PT 10/35 polytron. TME buffer was added to achieve a final 40 ml volume in the centrifuge tubes (the composition of TME is 100 mM TRIS base, 20 mM MgCl2, […]; 10N HCl is added to achieve a pH of 7.4). The cell homogenate was centrifuged at 19000 r.p.m. for 20 min at 4 °C. using a Beckman Ti-60 rotor. The resultant pellet was resuspended in TME buffer to give a final 1 mg/ml protein concentration, as determined by Biorad assay. Radioligand binding competition assays vs. [3H-]17-phenyl PGF2a (5 nM) were performed in a 100 μl volume for 60 min. Binding reactions were started by adding plasma membrane fraction. The reaction was terminated by the addition of 4 ml ice-cold TRIS-HCl buffer and rapid filtration through glass fiber GF/B filters using a Brandel cell harvester. The filters were washed 3 times with ice-cold buffer and oven dried for one hour. [3H−] PGE2 (specific activity 180 Ci mmol) was used as the radioligand for EP receptors. [3H] 17-phenyl PGF2a was employed for FP receptor binding studies. Binding studies employing EP1, EP2, EP4 and FP receptors were performed in duplicate in at least three separate experiments. A 200 μl assay volume was used. […]; assay type: cell-free
T1 sequence (P35408 whole entry): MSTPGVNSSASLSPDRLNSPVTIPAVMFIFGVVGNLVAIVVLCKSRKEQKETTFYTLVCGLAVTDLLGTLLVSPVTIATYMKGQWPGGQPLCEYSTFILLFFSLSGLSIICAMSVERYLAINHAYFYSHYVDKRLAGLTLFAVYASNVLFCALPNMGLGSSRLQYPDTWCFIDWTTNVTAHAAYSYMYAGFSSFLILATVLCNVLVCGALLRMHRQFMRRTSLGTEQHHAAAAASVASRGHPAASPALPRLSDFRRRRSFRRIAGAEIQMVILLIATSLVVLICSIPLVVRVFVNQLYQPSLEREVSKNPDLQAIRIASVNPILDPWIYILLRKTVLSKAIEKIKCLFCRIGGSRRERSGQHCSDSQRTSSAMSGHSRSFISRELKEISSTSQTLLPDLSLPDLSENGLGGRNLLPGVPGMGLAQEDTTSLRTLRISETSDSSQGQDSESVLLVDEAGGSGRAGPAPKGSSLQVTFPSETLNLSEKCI

[2] = molecular target: T2, Prostaglandin E2 receptor EP2 subtype (Homo sapiens, UniProt P43116); test: as §1; assay type: cell-free
T2 sequence (P43116 whole entry): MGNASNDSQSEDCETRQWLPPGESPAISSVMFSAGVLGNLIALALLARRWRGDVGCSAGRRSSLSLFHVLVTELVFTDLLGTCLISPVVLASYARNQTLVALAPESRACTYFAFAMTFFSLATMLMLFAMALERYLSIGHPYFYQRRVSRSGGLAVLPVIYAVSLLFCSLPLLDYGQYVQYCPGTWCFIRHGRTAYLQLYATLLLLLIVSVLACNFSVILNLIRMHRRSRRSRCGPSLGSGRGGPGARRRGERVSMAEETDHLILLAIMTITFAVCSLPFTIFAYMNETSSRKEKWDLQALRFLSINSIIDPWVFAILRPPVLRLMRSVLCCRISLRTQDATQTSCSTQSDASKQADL

[3] = molecular target: T1, Prostaglandin E2 receptor EP4 subtype; test: (§2) cAMP Assay: EP4 receptors couple to Gs and mediate elevations in cAMP concentration, although they do participate in other pathways as well. There are some redundancies in function between EP2 and EP4 receptors. For example, both receptors induce PGE2-mediated RANKL through cAMP.; assay type: functional
[4] = molecular target: T2, Prostaglandin E2 receptor EP2 subtype; test: as §2; assay type: functional

Structure (SMILES): O=C(O)c1ccc(CCCN2[C@@H](/C=C/C(O)Cc3cccc(OC(F)(F)F)c3)CCS2(=O)=O)s1 (some centres undefined)
- EC50 [1]: 53 nM
- EC50 [2]: 96 nM
- EC50 [3]: 1 nM
- EC50 [4]: 38 nM
